# Laboratory results reported in patent publication US20250276973A1, “CRYSTAL OF 7H-PYRROLO[2,3-D]PYRIMIDINE-4-AMINE DERIVATIVE” (TAIHO PHARMACEUTICAL CO., LTD., priority 2022, published 2025).
# Where two headings read alike, the source gives them in different places.
# Columns and labels:
# [1] = Plasma concentration determination test after oral administration; type: in vivo; conditions: male beagle dogs, gelatin capsule, 20 mg/kg in terms of free form, hypochlorhydria conditions, three dogs
# Protocol: The Compound (1) in free form (type II crystal), the type III crystal of Compound (1) with one equivalent of succinic acid, and the type I crystal of Compound (1) with one equivalent of sorbic acid obtained in the examples were tested for plasma concentrations in male beagle dogs after oral administration under hypochlorhydria conditions.
# In order to select three male beagle dogs for the test, plasma concentrations were determined in five male beagle dogs under hypochlorhydria conditions after administration in a solution form and administration in a capsule-filled form. Three dogs with larger differences in AUClast (area under the plasma concentration-time curve from 0 hours after administration to the point at which the final concentration can be calculated by the linear trapezoidal method before Tmax and by the log-trapezoidal method after Tmax) and Cmax (maximum plasma concentration) between the administration in the solution form and the administration in the capsule-filled form were selected. Subsequently, tests were conducted to determine plasma concentrations in them after oral administration of the Compound (1) in free form (type II crystal), the type III crystal of Compound (1) with one equivalent of succinic acid, and the type I crystal of Compound (1) with one equivalent of sorbic acid in capsule-filled forms. The following procedures were employed for the preparation of a liquid dosage, capsule filling, and animal experiments.
# Compound (1) in free form was dissolved in a 20% HP-β-CD solution containing 0.1N hydrochloric acid to prepare a solution of 20 mg/5 mL. Compound (1) in free form (type II crystal), the type III crystal of Compound (1) with one equivalent of succinic acid, and the type I crystal of Compound (1) with one equivalent of sorbic acid were each filled into a gelatin capsule at 20 mg/kg in terms of the molecular weight of Compound (1) (free form).
# The male beagle dogs selected for the study were fasted starting between 11:00 a.m. to 12:00 p.m. on the day before Compound (1) was administered and fed after blood was collected 8 hours after the administration of the compound. The dogs were not allowed to drink water from 30 minutes before to 2 hours after the administration of the compound, but were allowed to drink freely at other time.
# Intravenous administration of atropine (atropine sulfate injection 0.5 mg “Fuso”) at a dose of 0.02 mg/kg was followed by intramuscular administration of pentagastrin at a dose of 0.01 mg/kg 30 minutes prior to the administration of the compound. Thirty minutes after the administration of atropine, the dogs were orally force-fed a capsule filled with the compound, encouraged to self-swallow the capsule with 5 mL of distilled water, and further orally force-fed 50 mL of distilled water using a catheter. Alternatively, the compound dissolved in liquid dosage was administered orally via a catheter at a dose of 20 mg/5 mL/kg, and the catheter was immediately rinsed with 10 mL of distilled water.
# Pentagastrin was again intramuscularly administered at 0.01 mg/kg 15 minutes and 1 hour after the administration of the compound.
# Before and after (0.25, 0.5, 1, 2, 4, 6, 8, and 24 hours after) the administration, the person in charge of collecting blood held the dog's forelimb to distend the blood vessel using a clothespin or the like. Then, the blood collection site was disinfected with alcohol cotton, and about 0.2 mL of blood was collected using a heparinized syringe and needle. After the blood was drawn, the puncture site was pressed with a cotton pad to adequately stop bleeding. The collected blood samples were ice-cooled, and plasma was isolated by centrifugation as soon as possible. The isolated plasma was immediately frozen on dry ice and then stored frozen in a freezer set at −80° C. […]
# [2] = Dynamic vapor sorption (DVS) test; type: physicochemical; conditions: 25° C.; for Hygroscopicity (result in words): 5 to 95% RH; for Weight increase under 95% relative humidity: 95% RH
# Protocol: Vapor sorption tests were performed using the type II crystal of Compound (1) in free form, the type III crystal of Compound (1) in free form, the type VII crystal of Compound (1) in free form, and the type VIII crystal of Compound (1) in free form obtained in the examples, reference example, and comparative example.
# Vapor sorption tests were conducted under the following conditions.
# Approximately 10 mg of the sample was filled into a specialized quartz holder to continuously measure and record the weight of the sample at each humidity was under the following conditions. The instrument, including data processing, was handled in accordance with the method and procedure indicated for each instrument. • Instrument: VTI-SA+(manufactured by TA Instruments) • Drying temperature: 60° C. • Heating rate: 1° C./min • Equilibration of drying: Confirmation of no more than 0.01 wt % decrease in 5 minutes within a period not exceeding 300 minutes • Measurement temperature: 25° C. • Equilibration of humidification: Confirmation of no more than 0.01 wt % increase in 5 minutes within a period not exceeding 120 minutes • Relative humidity program: Increase from 5 to 95% RH in increments of 5% RH, and decrease from 95% to 5% RH in increments of 5% RH. • Changes in the weight over the range of the measurement conditions obtained in these tests are shown in FIGS. 9 through 12.
# Vapor sorption tests were performed using the type III crystal of Compound (1) with succinic acid, the type I crystal of Compound (1) with citric acid, the type IV crystal of Compound (1) with citric acid, the type I crystal of Compound (1) with sorbic acid, and the type I crystal of Compound (1) with phosphoric acid obtained in the examples, reference example, and comparative examples.
# Vapor sorption tests were conducted under the same conditions as in Test Example 2.
# [3] = Solid stability test (4 weeks of storage at 80° C., closed system; HPLC); type: physicochemical; conditions: for Chemical purity after 4 weeks of storage at 80° C. / Solid stability (result in words): 80° C. (closed system), 4 weeks; for Chemical purity after 4 weeks of storage at 80° C.: glass bottle; for Chemical purity after 4 weeks of storage at 80° C. / Chemical purity before storage: HPLC; for Solid stability (result in words): related substances by HPLC; for Change (chemical purity): after 4 weeks at 80° C. versus before storage; for Chemical purity before storage: UV 220
# Protocol: The solid stability of the type II crystal of Compound (1) in free form, the type III crystal of Compound (1) in free form, the type VII crystal of Compound (1) in free form, and the type VIII crystal of Compound (1) in free form obtained in the examples, reference example, and comparative example were evaluated after 4 weeks of storage by the following procedure. • Storage conditions: 80° C. (closed system) (HIFLEX (high-temperature storage chamber manufactured by ETAC)) • Storage period: 4 weeks • Storage volume: Approximately 30 mg • Storage container: Glass bottle
# Changes in the mass of the related substances (the amounts of detected substances other than Compound (1)) were analyzed by HPLC according to the following method. Approximately 8 mg of each sample was weighed and dissolved in I mL of a chloroform-methanol mixture (1:1 v/v). Fifty μL of this solution was measured and diluted with 950 μL of an acetonitrile-water mixture (7:3), and 5 μL of the resulting solution was accurately measured and used as the sample for the analysis.
# The mass of the related substances in the sample solution was determined by HPLC analysis. The instrument, including data processing, was handled in accordance with the method and procedure indicated for each instrument. • Column: InertSustainSwift C18 (2.1×50 mm, 1.9 μm) manufactured by GL Sciences • UV detection: […] • Column temperature: 40° C. • Flow rate: 0.3 mL/min • Sample cooler: 10° C. • Sample concentration: 0.1 mg/mL • Mobile phase A: 10 mmol/L phosphate buffer (pH 6.8)/acetonitrile (95:5) mixture • Mobile phase B: Acetonitrile • The gradients are shown in Table 4.
# The solid stability of the type III crystal of Compound (1) with succinic acid, the type I crystal of Compound (1) with citric acid, the type IV crystal of Compound (1) with citric acid, the type I crystal of Compound (1) with sorbic acid, and the type I crystal of Compound (1) with phosphoric acid obtained in the examples, reference example, and comparative examples were evaluated after 4 weeks of storage. The evaluation method, storage, and measurement conditions were as described in Test Example 1.
# [4] = male, beagle, dog, plasma, po, 20 mg/kg
"AUC(0-t) [1, 4]","Cmax [1, 4]","tmax ([1]; male, beagle, dog, plasma, po, 20 mg/kg, read-out: tmax)",Hygroscopicity (result in words) [2],Weight increase under 95% relative humidity [2],AUClast [1],Cmax [1],tmax [1],Chemical purity after 4 weeks of storage at 80° C. [3],Change (chemical purity) [3],Chemical purity before storage [3],Structure (SMILES),Solid stability (result in words) [3]
13 ± 4 µM·h,1260 ± 90 nM,4 h,–,–,–,–,–,–,–,–,"C#Cc1c(-c2cnc3ccccc3c2)c2c(N)ncnc2n1C12CCC(NC(=O)c3cnc(C)cn3)(CC1)C2 [N-(4-(4-amino-6-ethynyl-5-(quinolin-3-yl)-7H-pyrrolo[2,3-d]pyrimidin-7-yl)bicyclo[2.2.1]heptan-1-yl)-5-methylpyrazine-2-carboxamide]",–
–,–,–,hardly hygroscopic,0.26%,18.1 ± 13.1 µM·h,1680 ± 880 nM,6.0 ± 2.0 h,99.72%,−0.02%,99.74%,"C#Cc1c(-c2cnc3ccccc3c2)c2c(N)ncnc2n1C12CCC(NC(=O)c3cnc(C)cn3)(CC1)C2 [Type I crystal of Compound (1) with sorbic acid] [N-(4-(4-amino-6-ethynyl-5-(quinolin-3-yl)-7H-pyrrolo[2,3-d]pyrimidin-7-yl)bicyclo[2.2.1]heptan-1-yl)-5-methylpyrazine-2-carboxamide]",extremely stable crystals with almost no increase in the related substances
–,–,–,hardly hygroscopic,0.28%,25.1 ± 8.4 µM·h,2240 ± 750 nM,5.3 ± 1.2 h,99.63%,+0.01%,99.62%,"C#Cc1c(-c2cnc3ccccc3c2)c2c(N)ncnc2n1C12CCC(NC(=O)c3cnc(C)cn3)(CC1)C2 [Type III crystal of Compound (1) with succinic acid] [N-(4-(4-amino-6-ethynyl-5-(quinolin-3-yl)-7H-pyrrolo[2,3-d]pyrimidin-7-yl)bicyclo[2.2.1]heptan-1-yl)-5-methylpyrazine-2-carboxamide]",extremely stable crystals with almost no increase in the related substances
